Experimental data published in the NIST ThermoML archive (doi:10.1016/j.fluid.2015.07.012).

Assay: xn = mol fraction of the nth substance listed
Settings: Liquid; for viscosity: Capillary tube (Ostwald / Ubbelohde) method; for mass density: Vibrating tube method

CCCO [propan-1-ol] + O
Settings | mass density, 10000 kPa [kg/m3] | mass density, 20000 kPa [kg/m3] | mass density, 40000 kPa [kg/m3] | viscosity, 10000 kPa [mPa·s] | viscosity, 20000 kPa [mPa·s] | viscosity, 40000 kPa [mPa·s]
350.7 K, x1 = 0.1 | – | – | 934.42 | – | – | 0.635
350.7 K, x1 = 0.2 | – | – | 895.4 | – | – | 0.826
350.7 K, x1 = 0.3 | – | – | 866.79 | – | – | 0.861
350.7 K, x1 = 0.4 | – | – | 847.26 | – | – | 0.883
350.7 K, x1 = 0.6 | – | – | 819.69 | – | – | 0.88
350.7 K, x1 = 0.8 | – | – | 802.32 | – | – | 0.864
350.7 K, x1 = 1 | – | – | 789.02 | – | – | 0.869
373.2 K, x1 = 0.1 | 900.32 | 905.78 | – | 0.439 | 0.441 | –
373.2 K, x1 = 0.2 | 857.3 | 863.27 | – | 0.504 | 0.513 | –
373.2 K, x1 = 0.3 | 827.05 | 834.28 | – | 0.531 | 0.55 | –
373.2 K, x1 = 0.4 | 804.56 | 813.43 | – | 0.514 | 0.542 | –
373.2 K, x1 = 0.6 | 774.56 | 784.28 | – | 0.51 | 0.541 | –
373.2 K, x1 = 0.8 | 755.44 | 765.59 | – | 0.49 | 0.531 | –
373.2 K, x1 = 1 | 741.54 | 752.5 | – | 0.488 | 0.533 | –
